Experimental data from patent US20100311714A1, “1H-IMIDAZO[4,5-c]QUINOLINONE COMPOUNDS” (priority 2009, published 2010).
Like-named read-outs stand apart in the source and are kept apart here.

Assays:
mTOR = biological target: T1, mTOR (Homo sapiens, UniProt P42345); experiment: Biochemical assay for m-TOR by TR-FRET
T1 construct: purchased Invitrogen Corporation (Carlsbad/Calif., USA) PV4753
Outline: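 mTOR (0.5 nM) phosphorylates GFP-4EBP1 (400 nM) with 8 μM ATP at rt in 50 mM HEPES pH 7.5, 10 mM MnCl2, 50 mM NaCl, 1 mM EGTA, 1 mM DTT; compounds 0.003–10 μM final. EDTA stop with Tb-anti-p4EBP1[pT46] antibody (0.5 nM); TR-FRET read after 15 min against no-enzyme and vehicle controls.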

[1] = tested on: PKB Ser473 phosphorylation in Rat1-myr-HA-p110 beta cells; experiment: Reverse protein array, PKB Ser473 phosphorylation in Rat1-myr-HA-p110 beta cells; assay type: cell-based; conditions: Rattus norvegicus, 0.5 h, 30 minutes compound incubation, read-out: p-PKB/IC50_beta

T1 sequence (P42345 1360-2549 limits assumed): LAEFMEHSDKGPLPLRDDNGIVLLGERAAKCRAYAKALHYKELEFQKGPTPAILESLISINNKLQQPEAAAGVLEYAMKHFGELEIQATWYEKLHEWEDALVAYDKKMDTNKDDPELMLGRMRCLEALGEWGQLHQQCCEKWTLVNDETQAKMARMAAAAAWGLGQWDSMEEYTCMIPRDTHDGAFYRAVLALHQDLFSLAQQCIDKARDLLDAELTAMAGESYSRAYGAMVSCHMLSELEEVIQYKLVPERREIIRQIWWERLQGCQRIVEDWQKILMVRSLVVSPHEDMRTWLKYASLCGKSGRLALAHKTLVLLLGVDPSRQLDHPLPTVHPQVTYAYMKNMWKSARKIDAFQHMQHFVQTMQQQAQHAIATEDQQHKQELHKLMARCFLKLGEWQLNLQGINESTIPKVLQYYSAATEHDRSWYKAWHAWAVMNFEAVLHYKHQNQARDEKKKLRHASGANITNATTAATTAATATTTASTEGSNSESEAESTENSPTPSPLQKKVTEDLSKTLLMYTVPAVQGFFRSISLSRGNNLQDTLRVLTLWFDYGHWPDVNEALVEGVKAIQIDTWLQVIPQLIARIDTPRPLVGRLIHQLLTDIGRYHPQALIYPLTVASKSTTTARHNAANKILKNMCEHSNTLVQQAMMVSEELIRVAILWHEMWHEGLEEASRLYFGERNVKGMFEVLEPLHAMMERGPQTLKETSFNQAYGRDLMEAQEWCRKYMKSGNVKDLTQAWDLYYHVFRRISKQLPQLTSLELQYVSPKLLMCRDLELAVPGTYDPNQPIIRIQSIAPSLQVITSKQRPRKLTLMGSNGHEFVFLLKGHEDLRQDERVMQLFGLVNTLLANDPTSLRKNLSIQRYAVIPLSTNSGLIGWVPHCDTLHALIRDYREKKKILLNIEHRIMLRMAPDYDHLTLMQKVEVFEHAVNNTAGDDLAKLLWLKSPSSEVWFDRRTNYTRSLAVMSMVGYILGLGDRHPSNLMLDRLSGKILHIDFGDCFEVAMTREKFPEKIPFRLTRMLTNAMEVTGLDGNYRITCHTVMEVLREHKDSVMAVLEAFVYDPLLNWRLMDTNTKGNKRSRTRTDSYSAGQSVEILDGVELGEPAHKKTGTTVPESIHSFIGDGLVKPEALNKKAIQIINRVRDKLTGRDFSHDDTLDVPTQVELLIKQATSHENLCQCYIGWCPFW

| SMILES | IC50 (mTOR; read-out: EPK_mTOR/IC50) [µM] | IC50 [1] [µM] | IC50 (mTOR; read-out: mTOR/IC50) [µM] |
| --- | --- | --- | --- |
| COc1cc(-c2ccc3ncc4c(c3c2)n(-c2ccc(F)nc2C)c(=O)n4C)cnc1CO [Example 7.10, 1-(6-Fluoro-2-methyl-pyridin-3-yl)-8-(6-hydroxymethyl-5-methoxy-pyridin-3-yl)-3-methyl-1,3-dihydro-imidazo[4,5-c]quinolin-2-one] | 0.301 | 0.0966 |  |
| Cc1nc(N2CC(O)C2)ccc1-n1c(=O)n(C)c2cnc3ccc(-c4cncc(C(C)(C)O)c4)cc3c21 [Example 29.1, 1-[6-(3-Hydroxy-azetidin-1-yl)-2-methyl-pyridin-3-yl]-8-[5-(1-hydroxy-1-methyl-ethyl)-pyridin-3-yl]-3-methyl-1,3-dihydro-imidazo[4,5-c]quinolin-2-one] | 0.005 | 1.1 |  |
| COCc1ncc(-c2ccc3ncc4c(c3c2)n(-c2ccc(F)nc2C)c(=O)n4C)cc1OC [Example 7.7, 1-(6-Fluoro-2-methyl-pyridin-3-yl)-8-(5-methoxy-6-methoxymethyl-pyridin-3-yl)-3-methyl-1,3-dihydro-imidazo[4,5-c]quinolin-2-one] | 0.447 | 0.278 |  |
| COc1cc(-c2ccc3ncc4c(c3c2)n(-c2ccc(N3CC(F)(F)C3)nc2C)c(=O)n4C)cnc1CO [Example 24.4, 1-[6-(3,3-Difluoro-azetidin-1-yl)-2-methyl-pyridin-3-yl]-8-(6-hydroxymethyl-5-methoxy-pyridin-3-yl)-3-methyl-1,3-dihydro-imidazo[4,5-c]quinolin-2-one] | 0.449 | 0.0441 |  |
| COc1cc(-c2ccc3ncc4c(c3c2)n(-c2ccc(N3CCCC3)nc2C)c(=O)n4C)cnc1CO [Example 25.4, 8-(6-Hydroxymethyl-5-methoxy-pyridin-3-yl)-3-methyl-1-(2-methyl-6-pyrrolidin-1-yl-pyridin-3-yl)-1,3-dihydro-imidazo[4,5-c]quinolin-2-one] | 0.655 | 0.0176 |  |
| COCc1ncc(-c2ccc3ncc4c(c3c2)n(-c2cccnc2C)c(=O)n4C)cc1OC [Example 2.30, 8-(5-Methoxy-6-methoxymethyl-pyridin-3-yl)-3-methyl-1-(2-methyl-pyridin-3-yl)-1,3-dihydro-imidazo[4,5-c]quinolin-2-one] | 0.077 | 0.139 |  |
| CNc1ncc(-c2ccc3ncc4c(c3c2)n(-c2ccc(N3CC[C@H](O)C3)nc2C)c(=O)n4C)cc1Cl [Example 32.4, 8-(5-Chloro-6-methylamino-pyridin-3-yl)-1-[6-((S)-3-hydroxy-pyrrolidin-1-yl)-2-methyl-pyridin-3-yl]-3-methyl-1,3-dihydro-imidazo[4,5-c]quinolin-2-one] | 0.007 | 0.013 |  |
| COc1cc(-c2ccc3ncc4c(c3c2)n(-c2ccc(N3CCC(OC)C3)nc2C)c(=O)n4C)cnc1CO (stereo not shown) [Example 28.3, 8-(6-Hydroxymethyl-5-methoxy-pyridin-3-yl)-1-[6-(3-methoxy-pyrrolidin-1-yl)-2-methyl-pyridin-3-yl]-3-methyl-1,3-dihydro-imidazo[4,5-c]quinolin-2-one] | 0.172 | 0.0445 |  |
| COc1ccc(-n2c(=O)n(C)c3cnc4ccc(-c5cncc(N6CCC6)c5)cc4c32)c(OC)n1 [Example 8.11, 8-(5-Azetidin-1-yl-pyridin-3-yl)-1-(2,6-dimethoxy-pyridin-3-yl)-3-methyl-1,3-dihydro-imidazo[4,5-c]quinolin-2-one] | 0.005 | 0.0171 |  |
| CNC(=O)c1ccc(-c2ccc3ncc4c(c3c2)n(-c2cccnc2C)c(=O)n4C)cc1 [Example 2.4, N-Methyl-4-[3-methyl-1-(2-methyl-pyridin-3-yl)-2-oxo-2,3-dihydro-1H-imidazo[4,5-c]quinolin-8-yl]-benzamide] |  | 0.0148 | 0.012 |
| COc1ccc(-n2c(=O)n(C)c3cnc4ccc(-c5cnc(C(OC)OC)c(OC)c5)cc4c32)c(OC)n1 [Example 8.13, 8-(6-Dimethoxymethyl-5-methoxy-pyridin-3-yl)-1-(2,6-dimethoxy-pyridin-3-yl)-3-methyl-1,3-dihydro-imidazo[4,5-c]quinolin-2-one] | 0.086 | 0.212 |  |
| CNc1ncc(-c2ccc3ncc4c(c3c2)n(-c2ccc(N3CC[C@@H](O)C3)nc2C)c(=O)n4C)cn1 [Example 34.1, 1-[6-((R)-3-Hydroxy-pyrrolidin-1-yl)-2-methyl-pyridin-3-yl]-3-methyl-8-(2-methylamino-pyrimidin-5-yl)-1,3-dihydro-imidazo[4,5-c]quinolin-2-one] | 0.028 | 0.02 |  |
| Cc1ncccc1-n1c(=O)n(C)c2cnc3ccc(-c4cnc5[nH]ccc5c4)cc3c21 [Example 2.8, 3-Methyl-1-(2-methyl-pyridin-3-yl)-8-(1H-pyrrolo[2,3-b]pyridin-5-yl)-1,3-dihydro-imidazo[4,5-c]quinolin-2-one] |  | 0.00949 |  |
| Cc1nc(N2CCC(O)C2)ccc1-n1c(=O)n(C)c2cnc3ccc(-c4cncc(C(C)(C)O)c4)cc3c21 (stereo not shown) [Example 27.5, 8-[5-(1-Hydroxy-1-methyl-ethyl)-pyridin-3-yl]-1-[6-(3-hydroxy-pyrrolidin-1-yl)-2-methyl-pyridin-3-yl]-3-methyl-1,3-dihydro-imidazo[4,5-c]quinolin-2-one] | 0.015 | 0.197 |  |
| CCNc1cc(-c2ccc3ncc4c(c3c2)n(-c2ccc(N3CCCC3)nc2C)c(=O)n4C)cnc1CO [Example 25.5, 8-(5-Ethylamino-6-hydroxymethyl-pyridin-3-yl)-3-methyl-1-(2-methyl-6-pyrrolidin-1-yl-pyridin-3-yl)-1,3-dihydro-imidazo[4,5-c]quinolin-2-one] | 0.022 | < 0.00457 |  |
| Cc1nc(F)ccc1-n1c(=O)n(C)c2cnc3ccc(-c4cncc(N5CCC5)c4)cc3c21 [Example 7.6, 8-(5-Azetidin-1-yl-pyridin-3-yl)-1-(6-fluoro-2-methyl-pyridin-3-yl)-3-methyl-1,3-dihydro-imidazo[4,5-c]quinolin-2-one] | 0.059 | 0.0228 |  |
| CCNc1cc(-c2ccc3ncc4c(c3c2)n(-c2ccc(N3CC(F)(F)C(F)(F)C3)nc2C)c(=O)n4C)cnc1CO [Example 35.2, 8-(5-Ethylamino-6-hydroxymethyl-pyridin-3-yl)-3-methyl-1-[2-methyl-6-(3,3,4,4-tetrafluoro-pyrrolidin-1-yl)-pyridin-3-yl]-1,3-dihydro-imidazo[4,5-c]quinolin-2-one] | 0.045 | 0.00527 |  |
| COc1cc(-c2ccc3ncc4c(c3c2)n(-c2ccc(N3CC[C@H](O)C3)nc2C)c(=O)n4C)cnc1CO [Example 32.7, 8-(6-Hydroxymethyl-5-methoxy-pyridin-3-yl)-1-[6-((S)-3-hydroxy-pyrrolidin-1-yl)-2-methyl-pyridin-3-yl]-3-methyl-1,3-dihydro-imidazo[4,5-c]quinolin-2-one] | 0.05 | 0.2 |  |
| COc1ccc(-n2c(=O)n(C)c3cnc4ccc(-c5cnc(CO)c(OC)c5)cc4c32)c(OC)n1 [Example 8.14, 1-(2,6-Dimethoxy-pyridin-3-yl)-8-(6-hydroxymethyl-5-methoxy-pyridin-3-yl)-3-methyl-1,3-dihydro-imidazo[4,5-c]quinolin-2-one] | 0.115 | 0.0567 |  |
| CCNc1cc(-c2ccc3ncc4c(c3c2)n(-c2ccc(N(C)CCO)nc2C)c(=O)n4C)cnc1CO [Example 26.3, 8-(5-Ethylamino-6-hydroxymethyl-pyridin-3-yl)-1-{6-[(2-hydroxy-ethyl)-methyl-amino]-2-methyl-pyridin-3-yl}-3-methyl-1,3-dihydro-imidazo[4,5-c]quinolin-2-one] | 0.009 | 0.0069 |  |
| CCOc1ccc(-c2ccc3ncc4c(c3c2)n(-c2ccc(N3CCC(O)C3)nc2C)c(=O)n4C)cn1 (stereo not shown) [Example 27.4, 8-(6-Ethoxy-pyridin-3-yl)-1-[6-(3-hydroxy-pyrrolidin-1-yl)-2-methyl-pyridin-3-yl]-3-methyl-1,3-dihydro-imidazo[4,5-c]quinolin-2-one] | 0.023 | 0.0204 |  |
| Cn1c(=O)n(-c2cccnc2F)c2c3cc(-c4cnc5[nH]ccc5c4)ccc3ncc21 [Example 6.3, 1-(2-Fluoro-pyridin-3-yl)-3-methyl-8-(1H-pyrrolo[2,3-b]pyridin-5-yl)-1,3-dihydro-imidazo[4,5-c]quinolin-2-one] |  | 0.0141 | 0.047 |
| CNc1ncc(-c2ccc3ncc4c(c3c2)n(-c2ccc(N3CCC(OC)C3)nc2C)c(=O)n4C)cn1 (stereo not shown) [Example 28.2, 1-[6-(3-Methoxy-pyrrolidin-1-yl)-2-methyl-pyridin-3-yl]-3-methyl-8-(2-methylamino-pyrimidin-5-yl)-1,3-dihydro-imidazo[4,5-c]quinolin-2-one] | 0.008 | 0.0074 |  |
| COc1cc(-c2ccc3ncc4c(c3c2)n(-c2ccc(N)nc2C)c(=O)n4C)cnc1CO [Example 30.1, 1-(6-Amino-2-methyl-pyridin-3-yl)-8-(6-hydroxymethyl-5-methoxy-pyridin-3-yl)-3-methyl-1,3-dihydro-imidazo[4,5-c]quinolin-2-one] | 0.118 | 0.237 |  |
| Cc1nc(N2CCC(O)C2)ccc1-n1c(=O)n(C)c2cnc3ccc(-c4cnc(N)c(C(F)(F)F)c4)cc3c21 (stereo not shown) [Example 27.3, 8-(6-Amino-5-trifluoromethyl-pyridin-3-yl)-1-[6-(3-hydroxy-pyrrolidin-1-yl)-2-methyl-pyridin-3-yl]-3-methyl-1,3-dihydro-imidazo[4,5-c]quinolin-2-one] | 0.007 | 0.0086 |  |
